This note sets out measurements from patent publication US20220055989A1, “CONDENSED PYRROLES AS NOVEL BROMODOMAIN INHIBITORS” (ALBERT LUDWING UNIVERSITÄT FREIBURG, priority 2018, published 2022).

Broadly, the Kd is a measure of binding affinity in units of concentration. Low readings indicate a tighter complex, high ones a looser complex.

For experiment [1], the target named is T1, BRPF1B (Homo sapiens, UniProt P55201).
T1 construct: dissociation constants KD for two bromodomains (BRD4(1) and BRPF1B)
T1 sequence (P55201 628-732 limits assumed): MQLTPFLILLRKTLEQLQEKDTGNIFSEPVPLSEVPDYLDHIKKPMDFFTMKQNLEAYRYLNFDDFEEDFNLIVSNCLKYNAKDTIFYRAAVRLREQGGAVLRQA
The experiment is described as follows: Dissociation constant KD BRPF1B. The class given is binding.

Experiment [2] has as its target T2, BRD4(1) (Homo sapiens, UniProt O60885).
T2 construct: BRD4-BD1 was expressed and purified as described previously; made in house
The experiment is described as follows: Isothermal titration calorimetry, dissociation constant KD BRD4(1). The class given is binding. On the procedure:
BRD4-BD1 was expressed and purified as described previously (Filippakopoulos et al, (2012), Cell 149(1): […]) with the exception of the final buffer for crystallization and ITC analysis (20 mM Hepes/NaOH pH 7.5, 150 mM NaCl). Crystals were grown in the presence of 3.5 M Na-Formate (pH 7.5) at a protein concentration of 10 mg/ml and a ligand concentration of 2 mM added directly to the protein prior to crystallization from a 100 mM stock solution in DMSO. Data were collected at 100K using either a Rigaku HF-007 rotating anode X-ray generator equipped with VariMaxHF optics and a Saturn944 CCD detector or a mar345 image plate respectively at λ=1.54179 Å or at the PXI beamline at the Swiss Light Source at λ=1.000 Å with a Pilatus detector. Data processing and reduction was done with iMOSFLM (Leslie AGW PH (2007), Evolving Methods for Macromolecular Crystallography 245, 41.51), POINTLESS, and SCALA (Kabsch W (2010) Xds. Acta crystallographica. Section D, Biological crystallography 66(Pt 2):125-132; Bruker (2008) SADABS, SAINT and XPREP (Bruker AXS Inc., Madison, Wis., USA); Collaborative Computational Project N (1994) The CCP4 suite: programs for protein crystallography, Acta crystallographica, Section D, Biological crystallography 50(Pt 5):760-763), or with XDS, XSCALE, XDSCONV (Evans P (2006), Scaling and assessment of data quality, Acta crystallographica, Section D, Biological crystallography 62(Pt 1):72-82), and XPREP (Evans P R (2011), An introduction to data reduction: space-group determination, scaling and intensity statistics, Acta crystallographica, Section D, Biological crystallography 67(Pt 4):282-292).
Data were obtained in discrete titration experiments with an injection volume of 12 μl per injection. Subsequently, the heats per injection were calculated as integrals and after normalization against the molar concentrations plotted against the molar ratio as implemented in Microcal Origin. Finally, data were fitted according to a single set of sites binding model with
The dissociation constant Kd, is commonly used to describe the affinity between a ligand L and a protein, i.e. how tightly a ligand binds to a particular protein. The dissociation constant has molar units which correspond to the concentration of ligand at which the binding site on a particular protein is half occupied, i.e. the concentration of the ligand at which the concentration of protein with ligand bound equals the concentration of protein with no ligand bound. The smaller the dissociation constant, the higher the affinity between ligand and protein.
Background: In ITC the heat of successive injections is recorded.

The target in experiment [3] is T3, BRD7 (Homo sapiens, UniProt Q9NPI1).
T3 construct: T7 phage strains displaying bromodomains were grown; host or cells: T7 phage in E. coli derived from BL21
T3 sequence (Q9NPI1 131-235 limits assumed): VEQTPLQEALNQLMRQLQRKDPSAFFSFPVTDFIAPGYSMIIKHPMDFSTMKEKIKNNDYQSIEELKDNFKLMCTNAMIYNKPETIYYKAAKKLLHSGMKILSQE
In words: BROMOscan Kd determination BRD7. The format is binding. On the procedure:
(§1) Bromodomain profiling was carried out on the basis of BROMOscan™. This platform accounted for the indirect determination of the dissociation constants between 19 bromodomains and the compound of formula (13), by binding competition against a reference immobilized ligand. Compounds that bind the bromodomain prevent its binding to the immobilized ligand thus reducing the amount of protein captured. […] Hits are identified by measuring the amount of bromodomain captured in test versus control samples. Bromodomain assays for Kd determination: T7 phage strains displaying bromodomains were grown in parallel in 24-well blocks in an E. coli host derived from the BL21 strain. E. coli were grown to log-phase and infected with T7 phage from a frozen stock (multiplicity of infection=0.4) and incubated with shaking at 32° C. until lysis (90-150 minutes). The lysates were centrifuged (5,000×g) and filtered (0.2 μm) to remove cell debris. […] The liganded beads were blocked with excess biotin and washed with blocking buffer (SeaBlock (Pierce), 1% BSA, 0.05% Tween 20, 1 mM DTT) to remove unbound ligand and to reduce non-specific phage binding. […] Test compounds were prepared as 1000× stocks in 100% DMSO. Kds were determined using an 11-point 3-fold compound dilution series with one DMSO control point. All compounds for Kd measurements are distributed by acoustic transfer (non-contact dispensing) in 100% DMSO. The compounds were then diluted directly into the assays such that the final concentration of DMSO was 0.09%. All reactions performed in polypropylene 384-well plates. Each was a final volume of 0.02 ml. […] The bromodomain concentration in the eluates was measured by qPCR. […] All compounds for Kd measurements are distributed by acoustic transfer (non-contact dispensing) in 100% DMSO. The compounds were then diluted directly into the assays such that the final concentration of DMSO was 0.09%. Most Kds were determined using a compound top concentration=10,000 nM. If the initial Kd determined was <0.169 nM (the lowest concentration tested), the measurement was repeated with a serial dilution starting at a lower top concentration. Binding Constants (Kds): Binding constants (Kds) were calculated with a standard dose-response curve using the Hill equation: The Hill Slope was set to −1. Curves were fitted using a non-linear least square fit with the Levenberg-Marquardt algorithm.

Experiment [4] deals with T4, BRD9 (Homo sapiens, UniProt Q9H8M2).
T4 construct: T7 phage strains displaying bromodomains were grown; host or cells: T7 phage in E. coli derived from BL21
T4 sequence (Q9H8M2 136-240 limits assumed): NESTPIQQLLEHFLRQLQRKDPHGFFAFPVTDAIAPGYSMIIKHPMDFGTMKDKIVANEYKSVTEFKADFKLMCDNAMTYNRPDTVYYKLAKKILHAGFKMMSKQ
In words: BROMOscan Kd determination BRD9. The format is binding. On the procedure: as §1

Experiment [5] deals with T5, CECR2 (Homo sapiens, UniProt Q9BXF3).
T5 construct: T7 phage strains displaying bromodomains were grown; host or cells: T7 phage in E. coli derived from BL21
T5 sequence (Q9BXF3 434-538 limits assumed): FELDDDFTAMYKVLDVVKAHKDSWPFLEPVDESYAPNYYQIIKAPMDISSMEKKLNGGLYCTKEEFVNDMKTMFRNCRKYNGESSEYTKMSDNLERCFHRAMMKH
The experiment is described as follows: BROMOscan Kd determination CECR2. The class given is binding. On the procedure:
as §1

Experiment [6] has as its target T2, BRD4(1). In words: BROMOscan Kd determination BRD4(1). The format is binding. On the procedure:
as §1

Experiment [7] deals with T6, BRPF1 (Homo sapiens, UniProt P55201).
T6 construct: T7 phage strains displaying bromodomains were grown; host or cells: T7 phage in E. coli derived from BL21
T6 sequence (P55201 628-732 limits assumed): T1 sequence (P55201 628-732 limits assumed)
The experiment is described as follows: BROMOscan Kd determination BRPF1. The format is binding. On the procedure:
as §1

The target in experiment [8] is T7, EP300 (Homo sapiens, UniProt Q09472).
T7 construct: T7 phage strains displaying bromodomains were grown; host or cells: T7 phage in E. coli derived from BL21
T7 sequence (Q09472 1049-1156 limits assumed): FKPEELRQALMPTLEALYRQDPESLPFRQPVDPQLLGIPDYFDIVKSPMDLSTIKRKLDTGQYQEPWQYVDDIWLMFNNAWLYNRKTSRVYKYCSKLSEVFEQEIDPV
The experiment is described as follows: BROMOscan Kd determination EP300. The class given is binding. On the procedure:
as §1

The subject of experiment [9] is HL-60 cells. The experiment is described as follows: GI50 in a culture of HL-60 cells. The class given is cell-based. Conditions: concentration required to reduce the population of a culture of HL-60 cells by 50%.
Experiment [10] deals with P. falciparum cultures. In words: Plasmodium falciparum inhibitor treatment for 72 hours, parasitemia by flow cytometry. The format is cell-based. As to conditions: 100 μm of compound, vs DMSO control, early ring, mid trophozoite and schizont stages. On the procedure: Plasmodium falciparum Inhibitor Treatment for 72 Hours (One Replication Cycle) P. falciparum cultures were treated for 72 hours with 100 μm of compounds (19) to (22), (24) and (25) or DMSO as control. The cultures were stained for DNA content with fluorescent dye Hoechst 33342 (20 μm) and for RNA content with thiazole orange (1 μm). The double negative population represented uninfected erythrocytes (devoid of DNA and low in RNA content) whereas the P. falciparum infected erythrocytes were gated as early ring, mid trophozoite and late schizont stages based on their DNA and RNA content.
Background: A flow cytometer gives signals particle by particle.

For the molecule `CCOC(=O)c1[nH]c(C)c2c1CCC=CC2=O` [Compound 9, Ethyl 3-methyl-4-oxo-2,4,7,8-tetrahydrocyclohepta[c]pyrrole-1-carboxylate], the Kd in experiment [1] amounted to 2.05 µM; in [2] it was 8.28 µM.

`Cc1[nH]c(-c2ccccc2)c2c1C(=O)CCCC2` [Compound 21]: in experiment [1], the equilibrium dissociation constant (Kd) was 1.99 µM.

Turning to `CNC(=O)c1[nH]c(C)c2c1CCCCC2=O` [1″], the values for the Kd in experiment [1] and in experiment [2] were 5.08 µM and 6.41 µM, respectively.

`CCN(CC)S(=O)(=O)c1ccc(O)c(NC(=O)c2[nH]c(C)c3c2CCCCC3=O)c1` [Compound 18]: the Kd in experiment [2] was 0.0722 µM.

`COc1ccc(S(=O)(=O)N2CC3(COC3)C2)cc1NC(=O)c1[nH]c(C)c2c1CCCCC2=O` [Compound 16]: the Kd stood at 0.0055 µM in experiment [3]; 0.0043 µM in [4]; 0.76 µM in experiment [5]; 0.15 µM in experiment [6]; 0.417 µM in [2]; 1.3 µM in experiment [7]. Further, the Kd in experiment [8] was 0.99 µM.

On to `CCN(CC)S(=O)(=O)c1ccc(OC)c(NC(=O)c2[nH]c(C)c3c2CCCCC3=O)c1` [Compound 11, N-(5-(N,N-diethylsulfamoyl)-2-methoxyphenyl)-3-methyl-4-oxo-2,4,5,6,7,8-hexahydrocyclohepta[c]pyrrole-1-carboxamide], for which the Kd in experiment [3] turned out to be 0.25 µM; in experiment [4], 0.16 µM; in experiment [5], 1.1 µM; in experiment [6], 0.085 µM; in [2], 0.144 µM; in [7] it was 0.42 µM. For the same molecule, binding in [8] was put at a Kd of 2.1 µM. This molecule yielded a GI50HL60 in [9] of 1.36 µM.

With `Cc1[nH]c(-c2cccc(N)c2)c2c1C(=O)CCCC2` [Compound 20], in experiment [1], the Kd turned out to be 0.567 µM.

As to `Cc1noc(-c2[nH]c(C)c3c2CCCCC3=O)n1` [Compound 22], the affinity in [1], expressed as Kd, was 2.31 µM.

Consider `CCOC(=O)c1[nH]c(C)c2c1CCCCC2=O` [Compound 8, Ethyl 3-methyl-4-oxo-2,4,5,6,7,8-hexahydrocyclohepta[c]pyrrole-1-carboxylate], for which the Kd in [1] was determined as 1.05 µM; in experiment [2] it was 4.56 µM.

Regarding `Cc1[nH]c(-c2cccc(C(N)=O)c2)c2c1C(=O)CCCC2` [Compound 25], the Kd in experiment [1] was 0.713 µM.

Turning to `Cc1[nH]c(-c2ccc3cc[nH]c3c2)c2c1C(=O)CCCC2` [Compound 24, 1-(1H-indol-6-yl)-3-methyl-5,6,7,8-tetrahydrocyclohepta[c]pyrrol-4(2H)-one], the affinity in [1], expressed as Kd, was 0.639 µM. Moreover, the degree of parasitemia entry in [10] is recorded as “particularly effective”.

Consider `COc1ccc(S(=O)(=O)N2CCN(C)CC2)cc1NC(=O)c1[nH]c(C)c2c1CCCCC2=O` [Compound 14], for which the Kd in experiment [3] was determined as 0.16 µM; in experiment [4], 0.068 µM; in experiment [5], 0.24 µM; in experiment [6], 0.3 µM; in [2], 0.26 µM; in experiment [7], 0.32 µM. In experiment [8], this molecule showed a Kd of 1.8 µM. In [9], this molecule returned a GI50HL60 of 2.08 µM.

Molecule `Cc1[nH]c(-c2cccc(O)c2)c2c1C(=O)CCCC2` [Compound 19] gave a Kd in experiment [1] of 0.91 µM.

As to `COc1ccc(S(=O)(=O)N2CCCCCC2)cc1NC(=O)c1[nH]c(C)c2c1CCCCC2=O` [Compound 12, N-(5-(azepan-1-ylsulfonyl)-2-methoxyphenyl)-3-methyl-4-oxo-2,4,5,6,7,8-hexahydrocyclohepta[c]pyrrole-1-carboxamide], the Kd worked out at 0.31 µM in [3]; 0.53 µM in experiment [4]; 8.1 µM in experiment [5]; 0.17 µM in experiment [6]; 0.177 µM in experiment [2]; 2.5 µM in experiment [7]. The molecule further yielded a Kd in experiment [8] of 9 µM. Also, in [9], the GI50HL60 amounted to 0.57 µM.

Regarding `COc1ccc(S(=O)(=O)N2CCCCC2)cc1NC(=O)c1[nH]c(C)c2c1CCCCC2=O` [Compound 15], the Kd turned out to be 0.44 µM in experiment [3]; 0.3 µM in [4]; 0.58 µM in experiment [5]; 0.082 µM in experiment [6]; 0.0473 µM in [2]; 1.8 µM in experiment [7]. Besides, the Kd in experiment [8] was 3.5 µM.
